The supplement of paper PMC12613149

Tests used:
[1] = reversed-phase LC retention time (C18, 15 min MeOH gradient); higher = more hydrophobic / later elution
[2] = collision cross section (TIMS, N2 drift gas) of the primary ion; higher = larger gas-phase ion size
[3] = ionization mode: ESI-, ion species: [M-H]-
[4] = ionization mode: ESI+, ion species: [M+H]+

SMILES	reversed-phase LC retention time [1, 3]	collision cross section [2, 3]	reversed-phase LC retention time [1, 4]	collision cross section [2, 4]
Oc1ccc(C(c2ccccc2)(c2ccccc2)c2ccc(O)cc2)cc1 [Bisphenol BP]	16 min	196.58 Å²	–	–
CCC(C)(c1ccc(O)cc1)c1ccc(O)cc1 [Bisphenol B]	14.3 min	165.01 Å²	–	–
Oc1ccc(C(=C(Cl)Cl)c2ccc(O)cc2)cc1 [Bisphenol C]	14.5 min	164.81 Å²	–	–
CC(c1ccc(O)cc1)c1ccc(O)cc1 [Bisphenol E]	12.7 min	156.4 Å²	–	–
Oc1ccc(Cc2ccc(O)cc2)cc1 [Bisphenol F]	11.9 min	152.1 Å²	–	–
CC(C)c1cc(C(C)(C)c2ccc(O)c(C(C)C)c2)ccc1O [Bisphenol G]	16.8 min	187.67 Å²	–	–
CC(C)(c1ccc(O)c(-c2ccccc2)c1)c1ccc(O)c(-c2ccccc2)c1 [Bisphenol PH]	17.2 min	204.63 Å²	–	–
O=S(=O)(c1ccc(O)cc1)c1ccc(O)cc1 [Bisphenol S]	7.15 min	154.29 Å²	9.38 min	155.2 Å²
Oc1ccc(C2(c3ccc(O)cc3)CCCCC2)cc1 [Bisphenol Z]	15.3 min	173.12 Å²	–	–
CC(C)(C)C(O)C(Oc1ccc(-c2ccccc2)cc1)n1cncn1 (stereo unspecified) [Bitertanol]	–	–	15.9 min	192.15 Å²
O=C(Nc1ccccc1-c1ccc(Cl)cc1)c1cccnc1Cl [Boscalid]	–	–	14.2 min	177.19 Å²
CCC(C)n1c(=O)[nH]c(C)c(Br)c1=O (stereo unspecified) [Bromacil]	–	–	11.4 min	144.76 Å²
Oc1c(Br)cc(Cl)cc1Cc1cc(Cl)cc(Br)c1O [Bromochlorophen]	16.3 min	171.71 Å²	–	–
CCCCc1c(C)nc(NCC)nc1OS(=O)(=O)N(C)C [Bupirimate]	–	–	14.7 min	176.08 Å²
CC(NC(C)(C)C)C(=O)c1cccc(Cl)c1 (stereo unspecified) [Bupropion]	–	–	10.3 min	158.6 Å²
Oc1ccc2c(c1)C13CCCCC1(O)C(C2)N(CC1CCC1)CC3 (stereo unspecified) [Butorphanol]	16.6 min	188.37 Å²	–	–
Cn1c(=O)c2c(ncn2C)n(C)c1=O [Caffeine]	–	–	7.7 min	139.07 Å²
CC12CCC(=O)C=C1C=CC1[C@@H]2CCC2(C)[C@H]1CCC21CCC(=O)O1 (stereo partly specified) [Canrenone]	–	–	14.2 min	186.86 Å²
COC(=O)Nc1nc2ccccc2[nH]1 [Carbendazim]	–	–	7.33 min	137.16 Å²
CNC(=O)Oc1cccc2c1OC(C)(C)C2 [Carbofuran]	–	–	11.7 min	147.19 Å²

SMILES	reversed-phase LC retention time [1, 3]	collision cross section [2, 3]	reversed-phase LC retention time [1, 4]	collision cross section [2, 4]
Nc1nc(=O)c2ncn(COCC(=O)O)c2[nH]1 [Carboxy-aciclovir]	–	–	2.54 min	150.15 Å²
C[C@H](CCC(=O)O)[C@H]1CC[C@H]2[C@@H]3[C@H](O)C[C@@H]4C[C@H](O)CC[C@]4(C)[C@H]3CC[C@]12C [Chenodeoxycholic acid]	15.6 min	209.87 Å²	–	–
CNC(=O)c1cc(Cl)cc(C)c1NC(=O)c1cc(Br)nn1-c1ncccc1Cl [Chlorantraniliprole]	13.8 min	197.51 Å²	13.5 min	199.14 Å²
Cc1cc(Cl)ccc1/N=C/N(C)C [Chlordimeform]	–	–	8.19 min	145.93 Å²
CCOP(=O)(OCC)OC(=CCl)c1ccc(Cl)cc1Cl [Chlorfenvinphos]	–	–	15.7 min	169.3 Å²
Oc1ccc(Cl)cc1Cc1ccccc1 [Chlorophene]	15.9 min	147.97 Å²	–	–
N#Cc1c(O)c(Cl)c(Cl)c(C#N)c1Cl [Chlorothalonil-4-hydroxy]	11.8 min	135.03 Å²	–	–
Cc1ccc(NC(=O)N(C)C)cc1Cl [Chlorotoluron]	–	–	12.5 min	147.58 Å²
N#Cc1cc(Cl)c(O)c(Cl)c1 [Chloroxynil]	6.76 min	125.1 Å²	–	–
CC(C)OC(=O)Nc1cccc(Cl)c1 [Chlorpropham]	14.7 min	147.2 Å²	–	–
COc1nc(C)nc(NC(=O)NS(=O)(=O)c2ccccc2Cl)n1 [Chlorsulfuron]	9.09 min	177.5 Å²	12.1 min	177.23 Å²
C[C@H](CCC(=O)O)[C@H]1CC[C@H]2[C@@H]3[C@H](O)C[C@@H]4C[C@H](O)CC[C@]4(C)[C@H]3C[C@H](O)[C@]12C [Cholic acid]	14.7 min	203.99 Å²	–	–
CN=C(NC#N)NCCSCc1nc[nH]c1C [Cimetidine]	8.43 min	165.63 Å²	6.06 min	158.06 Å²
CCC1OC(=O)C(C)C(OC2CC(C)(OC)C(O)C(C)O2)C(C)C(OC2OC(C)CC(N(C)C)C2O)C(C)(OC)CC(C)C(=O)C(C)C(O)C1(C)O (stereo unspecified) [Clarithromycin]	–	–	13.9 min	267.43 Å²
CCCC1CC(C(=O)NC(C(C)Cl)C2OC(SC)C(O)C(O)C2O)N(C)C1 (stereo unspecified) [Clindamycin]	16.1 min	200.27 Å²	11.5 min	203.51 Å²
CCC(=O)O[C@]1(C(=O)CCl)[C@@H](C)C[C@H]2[C@@H]3CCC4=CC(=O)C=C[C@]4(C)[C@@]3(F)[C@@H](O)C[C@@]21C [Clobetasol propionate]	15.6 min	210.25 Å²	15.2 min	207.98 Å²
CC1(C)CON(Cc2ccccc2Cl)C1=O [Clomazon]	–	–	13.5 min	146.86 Å²
CN/C(=N\[N+](=O)[O-])NCc1cnc(Cl)s1 [Clothianidin]	8.62 min	150.63 Å²	8.59 min	153.61 Å²
CCC[C@H]1CCCCN1 [Coniine]	–	–	6.79 min	129.06 Å²
C[C@]12CCC(=O)C=C1CC[C@@H]1[C@@H]2C(=O)C[C@@]2(C)[C@H]1CC[C@]2(O)C(=O)CO [Cortisone]	–	–	16.9 min	181.22 Å²

Second part, the compound after the results:

reversed-phase LC retention time [1, 3]	collision cross section [2, 3]	reversed-phase LC retention time [1, 4]	collision cross section [2, 4]	SMILES
13.4 min	161.33 Å²	–	–	CC(C)(c1ccc(O)cc1)c1ccc(O)cc1 [Bisphenol A]
–	–	14.8 min	231.31 Å²	COc1ccccc1Oc1c(NS(=O)(=O)c2ccc(C(C)(C)C)cc2)nc(-c2ncccn2)nc1OCCO [Bosentan]
14.2 min	147.76 Å²	–	–	CCCCOC(=O)c1ccc(O)cc1 [Butyl 4-hydroxybenzoate]
9.52 min	202.36 Å²	13.3 min	196.78 Å²	CCOc1nc2cccc(C(=O)O)c2n1Cc1ccc(-c2ccccc2-c2nnn[nH]2)cc1 [Candesartan]
–	–	12.3 min	150.05 Å²	NC(=O)N1c2ccccc2C=Cc2ccccc21 [Carbamazepine]
–	–	11 min	155.79 Å²	CCNC(=O)[C@@H](C)OC(=O)Nc1ccccc1 [Carbetamide]
12.9 min	129.53 Å²	11.7 min	132.73 Å²	c1ccc2c(c1)[nH]c1ncccc12 [Carboline]
15.5 min	191.15 Å²	15.1 min	189.33 Å²	Cc1ccc(-c2cc(C(F)(F)F)nn2-c2ccc(S(N)(=O)=O)cc2)cc1 [Celecoxib]
14.6 min	195.01 Å²	13.5 min	200.88 Å²	O=C(O)COCCN1CCN(C(c2ccccc2)c2ccc(Cl)cc2)CC1 (stereo unspecified) [Cetirizine]
9.83 min	165.75 Å²	–	–	O=C(NC(CO)C(O)c1ccc([N+](=O)[O-])cc1)C(Cl)Cl (stereo unspecified) [Chloramphenicol]
–	–	12.4 min	224.29 Å²	NC(=NCCCCCCN=C(N)N=C(N)Nc1ccc(Cl)cc1)N=C(N)Nc1ccc(Cl)cc1 [Chlorohexidine]
–	–	14.6 min	175 Å²	CN(C)C(=O)Nc1ccc(Oc2ccc(Cl)cc2)cc1 [Chloroxuron]
–	–	10.8 min	164.13 Å²	CN(C)CCC(c1ccc(Cl)cc1)c1ccccn1 (stereo unspecified) [Chlorpheniramine]
12.8 min	156.4 Å²	14.1 min	154.65 Å²	O=c1cc(-c2ccccc2)oc2cc(O)cc(O)c12 [Chrysin]
–	–	8.22 min	175.82 Å²	O=C(O)c1cn(C2CC2)c2cc(N3CCNCC3)c(F)cc2c1=O [Ciprofloxacin]
–	–	11.3 min	182.06 Å²	CN(C)CCCC1(c2ccc(F)cc2)OCc2cc(C#N)ccc21 (stereo unspecified) [Citalopram]
–	–	13.1 min	172.6 Å²	CC(C)(C)C(=O)C(Oc1ccc(Cl)cc1)n1ccnc1 (stereo unspecified) [Climbazole]
14.4 min	194.82 Å²	–	–	C[C@H]1C[C@H]2[C@@H]3CCC4=CC(=O)C=C[C@]4(C)[C@@]3(F)[C@@H](O)C[C@]2(C)[C@@]1(O)C(=O)CCl [Clobetasol]
9.84 min	145.07 Å²	6.83 min	145.06 Å²	Clc1cccc(Cl)c1NC1=NCCN1 [Clonidine]
–	–	15.4 min	170.12 Å²	COC(=O)C(c1ccccc1Cl)N1CCc2sccc2C1 (stereo unspecified) [Clopidogrel]
–	–	11.6 min	179.65 Å²	CN1CCN(C2=Nc3cc(Cl)ccc3Nc3ccccc32)CC1 [Clozapine]
–	–	3.34 min	143.26 Å²	CN1C(=O)CC[C@H]1c1cccnc1 [Cotinine]
11.7 min	156.09 Å²	12.5 min	156.86 Å²	O=c1oc2cc(O)ccc2c2oc3cc(O)ccc3c12 [Coumestrol]
–	–	14 min	144.88 Å²	C/C=C/C(=O)N(CC)c1ccccc1C [Crotamiton]
